Here are results for 3 molecules from paper PMC7940609, “Hyperproduction of 3-hydroxypropionate by Halomonas bluephagenesis” (Nature Communications, 2021).

For series [1], the target named is T1, DhaTPp (Pseudomonas putida, UniProt Q88J46).
T1 construct: gene dhaT; C-terminal His-tag (plasmid p92), expressed in and purified from H. bluephagenesis TDΔdddA
T1 sequence (Q88J46 1-394): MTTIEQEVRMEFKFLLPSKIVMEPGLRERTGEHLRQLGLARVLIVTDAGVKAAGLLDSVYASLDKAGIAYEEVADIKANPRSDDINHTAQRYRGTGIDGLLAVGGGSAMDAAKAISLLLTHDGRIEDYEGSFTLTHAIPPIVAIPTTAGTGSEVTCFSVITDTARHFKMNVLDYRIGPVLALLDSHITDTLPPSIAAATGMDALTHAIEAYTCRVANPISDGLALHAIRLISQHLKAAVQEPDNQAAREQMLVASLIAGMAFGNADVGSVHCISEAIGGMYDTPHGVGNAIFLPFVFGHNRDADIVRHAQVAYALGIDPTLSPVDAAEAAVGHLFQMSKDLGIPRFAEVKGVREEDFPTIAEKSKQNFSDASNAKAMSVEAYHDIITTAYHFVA
The experiment in a line: specific activity, NADH formation. The conditions noted are these: 150 mM 1,3-propanediol, 2 mM NAD+, 100 mM potassium carbonate pH 9.0, 30 mM ammonium sulfate, 37 °C. The format is biochemical.

Series [2] concerns the target T2, DhaTKp (Klebsiella pneumoniae, UniProt Q7WRJ3).
T2 construct: gene dhaT; C-terminal His-tag (plasmid p95), expressed in and purified from H. bluephagenesis TDΔdddA
T2 sequence (Q7WRJ3 1-387): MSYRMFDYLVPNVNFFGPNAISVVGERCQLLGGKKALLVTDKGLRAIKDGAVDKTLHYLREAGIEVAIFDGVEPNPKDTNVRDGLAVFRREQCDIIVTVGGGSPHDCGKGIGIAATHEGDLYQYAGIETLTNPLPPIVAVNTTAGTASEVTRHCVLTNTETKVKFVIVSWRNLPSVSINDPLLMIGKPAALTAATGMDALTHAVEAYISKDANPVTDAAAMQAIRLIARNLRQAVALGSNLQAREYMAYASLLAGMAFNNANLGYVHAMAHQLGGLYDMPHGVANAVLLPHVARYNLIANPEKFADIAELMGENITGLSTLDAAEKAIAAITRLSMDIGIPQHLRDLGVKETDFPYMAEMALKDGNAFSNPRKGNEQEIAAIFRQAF
Description: specific activity, NADH formation. The format is biochemical. The conditions noted are these: 150 mM 1,3-propanediol, 2 mM NAD+, 100 mM potassium carbonate pH 9.0, 30 mM ammonium sulfate, 37 °C.

Series [3] has as its target T3, AldH (Escherichia coli, UniProt P23883).
T3 construct: gene puuC; N-terminal His-tag (plasmid p99), expressed in and purified from H. bluephagenesis TDΔdddA
T3 sequence (P23883 1-495): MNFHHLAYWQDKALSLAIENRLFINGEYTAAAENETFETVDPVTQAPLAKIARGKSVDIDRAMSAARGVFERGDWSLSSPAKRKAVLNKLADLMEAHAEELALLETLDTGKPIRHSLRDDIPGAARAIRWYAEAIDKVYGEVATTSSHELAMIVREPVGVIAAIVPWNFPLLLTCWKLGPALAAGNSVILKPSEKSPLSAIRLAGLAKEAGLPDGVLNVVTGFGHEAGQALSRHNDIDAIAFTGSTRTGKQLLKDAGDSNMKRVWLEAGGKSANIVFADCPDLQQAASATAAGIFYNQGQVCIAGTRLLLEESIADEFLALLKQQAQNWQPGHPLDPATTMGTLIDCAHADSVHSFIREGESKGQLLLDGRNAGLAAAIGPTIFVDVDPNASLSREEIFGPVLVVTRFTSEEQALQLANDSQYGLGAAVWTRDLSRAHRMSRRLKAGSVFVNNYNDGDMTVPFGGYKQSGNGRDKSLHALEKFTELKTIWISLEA
The experiment in a line: specific activity, NADH formation. The series is classed as biochemical. The conditions noted are these: 2.0 mM 3HPA, 2.0 mM NAD+, 100 mM potassium phosphate pH 8.0, 1 mM DTT, 37 °C.

Series [4] concerns the target T4, AldDPp (Pseudomonas putida, UniProt Q88QE9).
T4 construct: gene aldB-I; N-terminal His-tag (plasmid p98), expressed in and purified from H. bluephagenesis TDΔdddA
T4 sequence (Q88QE9 1-506): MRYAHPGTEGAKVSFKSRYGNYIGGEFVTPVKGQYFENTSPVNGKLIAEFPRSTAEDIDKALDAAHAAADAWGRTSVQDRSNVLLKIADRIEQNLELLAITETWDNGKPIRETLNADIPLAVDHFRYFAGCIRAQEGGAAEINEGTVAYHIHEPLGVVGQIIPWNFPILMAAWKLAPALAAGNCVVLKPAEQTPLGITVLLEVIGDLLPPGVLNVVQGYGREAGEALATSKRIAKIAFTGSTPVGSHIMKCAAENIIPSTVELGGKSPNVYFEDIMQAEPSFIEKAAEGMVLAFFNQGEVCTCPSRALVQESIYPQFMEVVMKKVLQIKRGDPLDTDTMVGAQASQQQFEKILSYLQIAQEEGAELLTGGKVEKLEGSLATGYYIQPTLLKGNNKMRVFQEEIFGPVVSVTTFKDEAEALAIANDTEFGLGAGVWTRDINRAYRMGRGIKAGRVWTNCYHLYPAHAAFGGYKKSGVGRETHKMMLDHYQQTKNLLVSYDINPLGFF
Description: specific activity, NADH formation. The series is classed as biochemical. The conditions noted are these: 2.0 mM 3HPA, 2.0 mM NAD+, 100 mM potassium phosphate pH 8.0, 1 mM DTT, 37 °C.

Series [5] concerns the target T5, PuuC (Klebsiella pneumoniae, UniProt A0A378BL98).
T5 construct: N-terminal His-tag (plasmid p100), expressed in and purified from H. bluephagenesis TDΔdddA
T5 sequence (A0A378BL98 1-495): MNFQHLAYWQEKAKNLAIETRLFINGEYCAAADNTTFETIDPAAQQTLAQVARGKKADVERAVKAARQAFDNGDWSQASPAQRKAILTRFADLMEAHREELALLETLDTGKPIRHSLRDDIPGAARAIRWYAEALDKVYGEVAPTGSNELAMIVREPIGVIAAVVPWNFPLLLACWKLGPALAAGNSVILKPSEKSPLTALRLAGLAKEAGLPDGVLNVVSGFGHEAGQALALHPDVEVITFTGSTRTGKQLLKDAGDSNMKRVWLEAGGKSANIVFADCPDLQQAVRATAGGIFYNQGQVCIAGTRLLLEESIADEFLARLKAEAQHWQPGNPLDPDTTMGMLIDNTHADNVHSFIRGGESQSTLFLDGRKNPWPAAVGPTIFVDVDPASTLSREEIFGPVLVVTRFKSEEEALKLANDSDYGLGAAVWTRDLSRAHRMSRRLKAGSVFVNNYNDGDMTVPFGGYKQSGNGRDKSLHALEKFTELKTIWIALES
Description: specific activity, NADH formation. The series is classed as biochemical. The conditions noted are these: 2.0 mM 3HPA, 2.0 mM NAD+, 100 mM potassium phosphate pH 8.0, 1 mM DTT, 37 °C.

Substrate in series [6]: O=CCCO
Description: purified protein. The format is biochemical, Halomonas sp. TD01. The conditions noted are these: 2 mM NAD+, 50 mM potassium phosphate pH 8.0, 1.0 mM DTT, 37 °C.

Broadly, the Km is the concentration of substrate that gives half-maximal velocity. The term kcat denotes the maximal rate divided by the concentration of active sites. As a reminder, the kcat/Km is the second-order rate constant that governs catalysis at low substrate concentration.

For the molecule `OCCCO` [1,3-propanediol], the “specific activity, NADH formation” value in series [1] was “higher than the alcohol dehydrogenase of P. putida DhaTPp and K. pneumoniae DhaTKp”; in series [2], “higher than the alcohol dehydrogenase of P. putida DhaTPp and K. pneumoniae DhaTKp”.

As to `O=CCCO` [3HPA], the “specific activity, NADH formation” value in series [3] is “four different aldehyde dehydrogenases (AldDHb, AldDPp, AldH, and PuuC) were analyzed”; in series [4], “four different aldehyde dehydrogenases (AldDHb, AldDPp, AldH, and PuuC) were analyzed”; in series [5], “four different aldehyde dehydrogenases (AldDHb, AldDPp, AldH, and PuuC) were analyzed”.

B1: AldDHb (Halomonas sp. TD01) (protein)
chain: MIYANPGDAGSVVSFEKRFGNYIGGEFVPPVNGQYFDNISPVNGQVFCEIPRSSAEDIEKALDAAHKAAPAWGKTSVQERSNILLKIADRLEQNLEMLAVAETWDNGKAVRETLNADIPLAVDHFRYFAGCLRSQEGTAADIDANTVAYHFHEPLGVVGQIIPWNFPILMAAWKLGPALAAGNCVILKPAEQTPASILKVMEVIGDLLPPGVLNVVNGFGAEAGQALATSKRIAKIAFTGSTPVGSHILKCAAENIIPSTVELGGKSPNIYFADIMNAEPTFIDKAVEGLVLAFFNQGEVCTCPSRALIQESMYDEFMAKVVERTKTIKRGNPLDTDVQVGAQASQEQFDKIMSYMDIARDEGAEFLAGGDKESLDDSINGGYYIQPTLLKGNNKMRVFQEEIFGPVVAVTTFKDEEEALAIANDTEFGLGAGVWSRDINVAFRMGRGIQAGRVWTNCYHQYPAHAAFGGYKKSGVGRETHKVALEHYQQTKNLLVSYDINPLGFF
notes: 506 residues, C-terminal His-tag (plasmid p91), expressed in and purified from H. bluephagenesis TDΔdddA
On to B1, for which, in series [6], the Michaelis constant (Km) came to 50 ± 2 µM, the kcat is 3.38 ± 0.09 s⁻¹ and the kcat/Km was 67400 ± 797 M⁻¹ s⁻¹.
